pIC50: −log10 of the molar value.
Legend:
[1] = system: human Notch 1; assay: Notch-CBF1 Transactivation Assay (Notch 1); format: cell-based; conditions: read-out: Notch 1 IC50; Notch-CBF1 transactivation luciferase assay in transfected HeLa cells; some values are an average of N experiments
Method in brief: (§1)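 HeLa cells transiently co-transfected with a truncated Notch receptor plus a 4×CBF1-site luciferase reporter were exposed to compounds (5 μM to 8.4×10^−5 μM, 3-fold dilutions) for 18 hours at 37° C. Luciferase was read after Steady-Glo. Inhibition was normalized between DMSO (total) and 0.5 μM in-house inhibitor (background) wells.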

[2] = system: human Notch 3; assay: Notch-CBF1 Transactivation Assay (Notch 3); format: cell-based; conditions: read-out: Notch 3 IC50; Notch-CBF1 transactivation luciferase assay in transfected HeLa cells; some values are an average of N experiments
Method in brief: as §1

[3] = human metabolic stability half-life assay; conditions: microsomes, human liver microsomes
Description: Metabolic Stability Half-Life Panel
Incubation with Liver Microsomes

[4] = system: Human T-cell acute lymphoblastic leukemia cell line TALL-1; assay: Human Tumor Xenograft Models in Mice: TALL-1; format: in vivo; conditions: for Antitumor Activity in TALL-1 (LCK), QD dosing / Antitumor Activity in TALL-1 (LCK), BID dosing: Log Cell Kill, oral administration, schedule QDx10, dose unit not given; for Antitumor Activity in TALL-1 (LCK), QD dosing: dose 20 (Ex 1, 52), 12 (Ex 10), 40 (Ex 40); for antitumor activity in the Human Tumor Xenograft Models in mice: oral administration (PO) either BID and/or QD, Table 24 (TALL-1); for Antitumor Activity in TALL-1 (LCK), BID dosing: dose 20 (Ex 35, 37)
[5] = system: human triple negative breast carcinoma cell line MDA-MB-157; assay: Human Tumor Xenograft Models in Mice: MDA-MB-157; format: in vivo; conditions: PO, QDx15 (10 day on-2 day off-5 day on); FIG. 14; result in words
Description: (§2) Dosed orally; PO, QDx15 (10 day on-2 day off-5 day on). Each symbol represents the median tumor burden of a group of 8 mice.
(§3) Human Tumor Xenograft Models in Mice
(§4) Mice were fed food and water ad libitum.
(§5) Preclinical Chemotherapy Trials
(§6) Tumor growth inhibition is calculated as follows: […]
(§7) In Vivo Antitumor Activity

[6] = system: human triple negative breast carcinoma cell line MDA-MB-468; assay: Human Tumor Xenograft Models in Mice: MDA-MB-468; format: in vivo; conditions: PO, QDx15 (10 day on-2 day off-5 day on); FIG. 15; result in words
Description: as §2, §3, §4, §5, §6, §7

[7] = system: human PAT70 pancreatic carcinoma cell line; assay: Human Tumor Xenograft Models in Mice: PAT70; format: in vivo; conditions: PO, QDx15 (10 day on-2 day off-5 day on); FIG. 16; result in words
Description: as §2, §3, §4, §5, §6, §7

[8] = pH 7.4, CYP-mediated metabolic stability half life, NADPH-dependent
[9] = pH 7.4, HLM (t1/2, min), CYP-mediated (NADPH-dependent), 0.5 μM compound, 45 min time course, some values are an average of N experiments

Row | SMILES | pIC50 [1] | pIC50 [2] | half-life at 0.5 µM [3, 8] | half-life at 0.5 µM [3, 9] | Antitumor Activity in TALL-1 (LCK), QD dosing [4] | in vivo antitumor activity, TALL-1 xenograft ([4]; PO, QDx10, FIGS. 12-13, result in words) | antitumor activity in the Human Tumor Xenograft Models in mice ([4]; result in words) | in vivo antitumor activity, MDA-MB-157 xenograft [5] | in vivo antitumor activity, MDA-MB-468 xenograft [6] | in vivo antitumor activity, PAT70 xenograft [7] | Antitumor Activity in TALL-1 (LCK), BID dosing [4]
1 | NC(=O)[C@@H](CC1CC1)[C@@H](CCC(F)(F)F)C(=O)N[C@H]1N=C(c2ccccc2)c2cccc(F)c2NC1=O [Example 1, (2R,3S)-3-(Cyclopropylmethyl)-N-((3S)-9-fluoro-2-oxo-5-phenyl-2,3-dihydro-1H-1,4-benzodiazepin-3-yl)-2-(3,3,3-trifluoropropyl)succinamide] | 8.38 | 8.21 | ≥ 30 min | 85 min | 4.5 | exhibited antitumor activity | showed antitumor activity | exhibited antitumor activity | exhibited antitumor activity | exhibited antitumor activity | –
2 | Cc1cccc2c1NC(=O)[C@@H](NC(=O)[C@H](CCC(F)(F)F)[C@H](CC1CC1)C(N)=O)N=C2c1cccc(F)c1 [Example 10, (2R,3S)-3-(Cyclopropylmethyl)-N-((3S)-5-(3-fluorophenyl)-9-methyl-2-oxo-2,3-dihydro-1H-1,4-benzodiazepin-3-yl)-2-(3,3,3-trifluoropropyl)succinamide] | 8.40 | 8.01 | ≥ 30 min | 72 min | >2.8 | – | showed antitumor activity | – | – | – | –
3 | CCC[C@H](C(N)=O)[C@@H](CCC(F)(F)F)C(=O)N[C@H]1N=C(c2ccccc2)c2cccc(C(F)(F)F)c2NC1=O [Example 35, (2R,3S)—N-((3S)-2-Oxo-5-phenyl-9-(trifluoromethyl)-2,3-dihydro-1H-1,4-benzodiazepin-3-yl)-3-propyl-2-(3,3,3-trifluoropropyl)succinamide] | 7.79 | 7.89 | ≥ 30 min | 36 min | – | – | showed antitumor activity | – | – | – | 3.1
4 | CCC[C@H](C(N)=O)[C@@H](CCC(F)(F)F)C(=O)N[C@H]1N=C(c2ccccc2)c2cccc(F)c2NC1=O [Example 37, (2R,3S)—N-((3S)-9-Fluoro-2-oxo-5-phenyl-2,3-dihydro-1H-1,4-benzodiazepin-3-yl)-3-propyl-2-(3,3,3-trifluoropropyl)succinamide] | 8.36 | 7.95 | ≥ 30 min | 43 min | – | – | showed antitumor activity | – | – | – | 2.0
5 | CCC[C@H](C(N)=O)[C@@H](CCC(F)(F)F)C(=O)N[C@H]1N=C(c2ccccc2)c2cccc(OC)c2NC1=O [Example 40, (2R,3S)—N-((3S)-9-Methoxy-2-oxo-5-phenyl-2,3-dihydro-1H-1,4-benzodiazepin-3-yl)-3-propyl-2-(3,3,3-trifluoropropyl)succinamide] | 8.17 | 8.16 | ≥ 30 min | 34 min | 1.4 | – | showed antitumor activity | – | – | – | –
6 | CC(C)[C@H](N)C(=O)OCN1C(=O)[C@@H](NC(=O)[C@H](CCC(F)(F)F)[C@H](CC2CC2)C(N)=O)N=C(c2ccccc2)c2cccc(F)c21 [Example 52, ((3S)-3-(((2R)-2-((1S)-2-Amino-1-(cyclopropylmethyl)-2-oxoethyl)-5,5,5-trifluoropentanoyl)amino)-9-fluoro-2-oxo-5-phenyl-2,3-dihydro-1H-1,4-benzodiazepin-1-yl)methyl L-valinate] | – | – | – | – | 5.7 | – | showed antitumor activity | – | – | – | –

From patent US9242941B2, “Alkyl, fluoroalkyl-1,4-benzodiazepinone compounds” (BRISTOL-MYERS SQUIBB COMPANY, priority 2012, dated 2016)
